# Assay results reported in patent publication US6713473B1, “Tricyclic compounds” (Meiji Seika Kaisha, Ltd., priority 1999, dated 2004).
# Read-outs that look alike come from different tables or passages of the source.
# Target: T1, human Y5 receptor (Homo sapiens, UniProt Q15761)
# T1 sequence (Q15761 1-445): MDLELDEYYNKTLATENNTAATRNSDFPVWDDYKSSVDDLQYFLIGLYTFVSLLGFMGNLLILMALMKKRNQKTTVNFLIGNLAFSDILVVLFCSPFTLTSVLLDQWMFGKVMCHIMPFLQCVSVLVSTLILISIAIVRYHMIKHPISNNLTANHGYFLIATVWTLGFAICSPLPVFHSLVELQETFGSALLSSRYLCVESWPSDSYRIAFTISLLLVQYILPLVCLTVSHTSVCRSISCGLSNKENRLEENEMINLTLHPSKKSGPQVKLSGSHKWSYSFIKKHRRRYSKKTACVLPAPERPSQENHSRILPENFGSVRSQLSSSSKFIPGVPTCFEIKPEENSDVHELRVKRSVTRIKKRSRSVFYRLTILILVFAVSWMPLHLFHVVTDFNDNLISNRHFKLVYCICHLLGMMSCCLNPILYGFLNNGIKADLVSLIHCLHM
# Test: Y5 receptor binding inhibition test
# Settings: for inhibition at 10 µM: 2 h, read-out: % Inhibition ratio (10 μM)
# [1] = test compound 10 μM, 3H-NPY, membrane of insect cells expressing human Y5 receptor, 4° C., 2 hours, relative to Y5 specific binding in solvent group
SMILES,% Inhibition ratio (10 μM) [1],other results
CCn1c2ccccc2c2cc(NC(=O)COC)ccc21 [Compound 3-7],–,inhibition at 10 µM: 95%
CCn1c2ccccc2c2cc(NS(C)(=O)=O)ccc21 [Compound 3-8],–,inhibition at 10 µM: 73%
CC(C)n1c2c(c3cc(NC(=O)NCCO)ccc31)CCCC2 [Compound 4-2],–,% Inhibition ratio (10 μM): 89%
CC(C)N(C)C(=O)Nc1ccc2c(c1)c1c(n2C(C)C)CCCC1 [Compound 5-2],97%,–
CCCCN(C)C(=O)Nc1ccc2c(c1)c1c(n2C(C)C)CCCC1 [Compound 5-3],98%,–
CC(C)n1c2c(c3cc(NC(=O)N(C)CCO)ccc31)CCCC2 [Compound 5-4],–,% Inhibition ratio (10 μM): 101%
CC(C)n1c2c(c3cc(NC(=O)N(C)CCCN(C)C)ccc31)CCCC2 [Compound 5-5],82%,–
CC(C)n1c2c(c3cc(NC(=O)N(C)CCCCO)ccc31)CCCC2 [Compound 5-6],89%,–
COCCCCN(C)C(=O)Nc1ccc2c(c1)c1c(n2C(C)C)CCCC1 [Compound 5-7],100%,–
CC(C)n1c2c(c3cc(NC(=O)N(C)CCC#N)ccc31)CCCC2 [Compound 5-9],98%,–
CC(C)n1c2c(c3cc(NC(=O)N(C)CCOCCO)ccc31)CCCC2 [Compound 5-10],104%,–
CC(C)n1c2c(c3cc(NC(=O)N(C)C4CCCCC4)ccc31)CCCC2 [Compound 5-11],97%,–
CC(C)n1c2c(c3cc(NC(=O)N(C)[C@H]4CC[C@H](O)CC4)ccc31)CCCC2 [Compound 5-12],100%,–
CC(C)n1c2c(c3cc(NC(=O)N(C)CC4CCCO4)ccc31)CCCC2 (stereo not drawn) [Compound 5-13],98%,–
CC(C)n1c2c(c3cc(NC(=O)N(C)CCN4CCCCC4)ccc31)CCCC2 [Compound 5-14],95%,–
CC(C)n1c2c(c3cc(NC(=O)N(C)CCN4CCN(C)CC4)ccc31)CCCC2 [Compound 5-15],87%,–
CC(C)n1c2c(c3cc(NC(=O)N(C)CCN4CCOCC4)ccc31)CCCC2 [Compound 5-16],86%,–
CC(C)n1c2c(c3cc(NC(=O)N(C)Cc4ccncc4)ccc31)CCCC2 [Compound 5-17],100%,–
CC(C)n1c2c(c3cc(NC(=O)N(C)CCc4ccccn4)ccc31)CCCC2 [Compound 5-18],100%,–
CC(C)n1c2c(c3cc(NC(=O)N(C)CCc4cccnc4)ccc31)CCCC2 [Compound 5-19],100%,–
CC(C)n1c2c(c3cc(NC(=O)N(C)CCc4ccncc4)ccc31)CCCC2 [Compound 5-20],103%,–
CC(C)n1c2c(c3cc(NC(=O)N(C)CCCn4ccnc4)ccc31)CCCC2 [Compound 5-22],100%,–

SMILES,% Inhibition ratio (10 μM) [1],other results
CC(C)n1c2c(c3cc(NC(=O)N(C)CCSc4nnc[nH]4)ccc31)CCCC2 [Compound 5-23],98%,–
CC(C)n1c2c(c3cc(NC(=O)N(C)CCCSc4nnc[nH]4)ccc31)CCCC2 [Compound 5-24],95%,–
CC(C)n1c2c(c3cc(NC(=O)N(C)CCSc4ncc[nH]4)ccc31)CCCC2 [Compound 5-25],101%,–
CC(C)n1c2c(c3cc(NC(=O)N(C)CC(O)CO)ccc31)CCCC2 (stereo not drawn) [Compound 5-26],108%,–
CC(C)n1c2c(c3cc(NC(=O)N(CCO)CCO)ccc31)CCCC2 [Compound 6-2],–,% Inhibition ratio (10 μM): 86%
COCCN(CCOC)C(=O)Nc1ccc2c(c1)c1c(n2C(C)C)CCCC1 [Compound 6-3],102%,–
CC(C)n1c2c(c3cc(NC(=O)N4CCCC4)ccc31)CCCC2 [Compound 7-1],92%,–
CC(C)n1c2c(c3cc(NC(=O)N4CCCCC4)ccc31)CCCC2 [Compound 7-2],99%,–
CC(C)n1c2c(c3cc(NC(=O)N4CCCCCC4)ccc31)CCCC2 [Compound 7-3],98%,–
CC(C)n1c2c(c3cc(NC(=O)N4CCC(O)C4)ccc31)CCCC2 (stereo not drawn) [Compound 7-4],90%,–
CC(C)n1c2c(c3cc(NC(=O)N4CCC[C@H]4CO)ccc31)CCCC2 [Compound 7-5],100%,–
CC(C)n1c2c(c3cc(NC(=O)N4CCC[C@@H]4CO)ccc31)CCCC2 [Compound 7-6],88%,–
CC(C)n1c2c(c3cc(NC(=O)N4CCC(O)CC4)ccc31)CCCC2 [Compound 7-7],97%,–
CC(C)n1c2c(c3cc(NC(=O)N4CCCCC4CO)ccc31)CCCC2 (stereo not drawn) [Compound 7-9],91%,–
CC(C)n1c2c(c3cc(NC(=O)N4CCCC(CO)C4)ccc31)CCCC2 (stereo not drawn) [Compound 7-10],97%,–
CC(C)n1c2c(c3cc(NC(=O)N4CCCCC4CCO)ccc31)CCCC2 (stereo not drawn) [Compound 7-11],95%,–
CC(C)n1c2c(c3cc(NC(=O)N4CCC(CCO)CC4)ccc31)CCCC2 [Compound 7-12],94%,–
CC(C)n1c2c(c3cc(NC(=O)N4CCC(N5CCCCC5)CC4)ccc31)CCCC2 [Compound 7-13],83%,–
CC(C)n1c2c(c3cc(NC(=O)N4CCSC4)ccc31)CCCC2 [Compound 7-14],96%,–
CC(C)n1c2c(c3cc(NC(=O)N4CCSCC4)ccc31)CCCC2 [Compound 7-15],88%,–
CC(C)n1c2c(c3cc(NC(=O)N4C[C@@H](C)O[C@@H](C)C4)ccc31)CCCC2 [Compound 7-16],96%,–
CC(C)n1c2c(c3cc(NC(=O)N4CCOC(CCO)C4)ccc31)CCCC2 (stereo not drawn) [Compound 7-17],99%,–

SMILES,% Inhibition ratio (10 μM) [1],other results
CC(C)n1c2c(c3cc(NC(=O)N4CCNCC4)ccc31)CCCC2 [Compound 7-18],92%,–
CC(C)n1c2c(c3cc(NC(=O)N4CCN(C)CC4)ccc31)CCCC2 [Compound 7-19],75%,–
CC(C)n1c2c(c3cc(NC(=O)N4CCN(c5ccccn5)CC4)ccc31)CCCC2 [Compound 7-20],89%,–
CC(C)n1c2c(c3cc(NC(=O)N4CCN(c5ncccn5)CC4)ccc31)CCCC2 [Compound 7-21],80%,–
CCn1c2c(c3cc(NC(=O)N4CCOCC4)ccc31)CCCC2 [Compound 8-2],95%,–
CCCn1c2c(c3cc(NC(=O)N4CCOCC4)ccc31)CCCC2 [Compound 8-3],–,% Inhibition ratio (10 μM): 101%
CC(C)n1c2c(c3cc(NC(=O)N4CCOCC4)ccc31)CCCC2 [Compound 8-4],98%,–
CCCCn1c2c(c3cc(NC(=O)N4CCOCC4)ccc31)CCCC2 [Compound 8-5],85%,–
CC(C)Cn1c2c(c3cc(NC(=O)N4CCOCC4)ccc31)CCCC2 [Compound 8-6],100%,–
O=C(Nc1ccc2c(c1)c1c(n2CC2CC2)CCCC1)N1CCOCC1 [Compound 8-7],100%,–
O=C(Nc1ccc2c(c1)c1c(n2CCO)CCCC1)N1CCOCC1 [Compound 8-9],–,% Inhibition ratio (10 μM): 101%
N#CCn1c2c(c3cc(NC(=O)N4CCOCC4)ccc31)CCCC2 [Compound 8-10],78%,–
CC(=O)n1c2c(c3cc(NC(=O)N4CCOCC4)ccc31)CCCC2 [Compound 8-11],102%,–
CC(C)n1c2c(c3cc(NC(=O)N(C)CCc4ccccn4)ccc31)CCC2 [Compound 10-2],83%,–
CC(C)n1c2c(c3cc(NC(=O)N(C)CCc4ccncc4)ccc31)CCC2 [Compound 10-3],95%,–
CC(C)n1c2c(c3cc(NC(=O)N4CCOCC4)ccc31)CCC2 [Compound 10-4],94%,–
CC(C)n1c2c(c3cc(NC(=O)N(C)CCc4ccccn4)ccc31)CCCCC2 [Compound 11-2],96%,–
CC(C)n1c2c(c3cc(NC(=O)N(C)CCc4ccncc4)ccc31)CCCCC2 [Compound 11-3],100%,–
CC(C)n1c2c(c3cc(NC(=O)N4CCOCC4)ccc31)CCCCC2 [Compound 11-4],97%,–
CC(C)n1c2c(c3cc(NC(=O)N(C)CCc4ccncc4)c(F)cc31)CCCC2 [Compound 12-1],–,inhibition at 10 µM: 100%
CC(C)n1c2c(c3cc(NC(=O)N(C)CCc4ccncc4)cc(F)c31)CCCC2 [Compound 12-2],–,inhibition at 10 µM: 96%
CC(C)n1c2c(c3cc(NC(=S)N(C)CCc4ccncc4)ccc31)CCCC2 [Compound 12-3],–,inhibition at 10 µM: 97%
